Values quoted from earlier work, collected in patent US9440985B2, “Tricyclic derivatives of N,N′-substituted 3,7-diazabicyclo [3.3.1]nonanes and drugs based thereon” (priority 2011, dated 2016).

Assays:
AMPA receptors [1] = details: high concentrations
AMPA receptors [2] = test system: AMPA receptors
AMPA receptors [3] = details: adult rats; 0.3-3 mg/kg

Row | concentration at which the clinical effect is manifested (AMPA receptors [1]) [mM] | NMDA-mediated signals (AMPA receptors [2]) | synaptic signal (AMPA receptors [2]; several hippocampus sites) | Compound | social memory (AMPA receptors [3])
1 | 0.1 | no effect | enhances the synaptic signal | COc1ccc(C(=O)N2CCCC2=O)cc1 [aniracetam] | 
2 |  |  |  | O=C(c1ccc2c(c1)OCCO2)N1CCCCC1 [CX546] | improves social memory
